Results from ChEMBL document CHEMBL5500403, “Discovery of a Double-Stapled Short Peptide as a Long-Acting HIV-1 Inactivator with Potential for Oral Bioavailability” (J Med Chem, 2024).
Bridge positions count the residues as written; N and C are the ends. Square brackets hold non-standard residues; d marks the D form. Peptide text beside a SMILES is read from it. S5 = C=CCCC[C@](C)(N)C(=O)O

Experiments:
[1] = Selectivity index, ratio of CC50 for cytotoxicity against human MT2 cells to IC50 for antiviral activity against HIV-1 IIIB infected in human MT2 cells; assay type: toxicity, cell-based; conditions: read-out: Ratio CC50/IC50
[2] = Cytotoxicity against human MT2 cells; assay type: toxicity, cell-based
[3] = test system: Human immunodeficiency virus 1; test: Antiviral activity against HIV-1 IIIB infected in human MT2 cells assessed as inhibition of viral growth pretreated with virus for 30 mins followed by infection with cells incubated for 72 hrs by ELISA; assay type: functional, organism-based; conditions: Human immunodeficiency virus 1, IIIB
[4] = MRT in Sprague-Dawley rat at 1 mg/kg,iv administration measured upto 9 days by LC-MS/MS analysis; assay type: ADME, organism-based; conditions: in vivo, time < 9 day
[5] = Biodistribution in Sprague-Dawley rat brain at 1 mg/kg,iv administration measured after 144 hrs by LC-MS/MS analysis; assay type: ADME, organism-based; conditions: in vivo
[6] = test system: Human immunodeficiency virus 1; test: Antiviral activity against T20-resistant HIV-1 NL4-3 harboring […] V38E and N42S mutant assessed as reduction in viral growth by measuring p24 antigen level incubated for 2 hrs by ELISA; assay type: functional, organism-based
[7] = test system: Human immunodeficiency virus 1; test: Antiviral activity against T20-resistant HIV-1 NL4-3 harboring […] N42T and N43K mutant infected in human MT2 cells assessed as inhibition of viral growth pretreated with virus for 30 mins followed by infection with cells incubated for 72 hrs by ELISA; assay type: functional, organism-based
[8] = Stability in rat liver assessed as parent compound remaining at 1 ug/ml incubated for 1 hr by LC-MS/MS analysis; assay type: ADME, tissue-based; conditions: at 1 µg/mL, read-out: Stability
[9] = Biodistribution in Sprague-Dawley rat brain at 1 mg/kg,iv administration measured after 5 mins by LC-MS/MS analysis; assay type: ADME, organism-based; conditions: in vivo
[10] = Volume of distribution at steady state in Sprague-Dawley rat at 1 mg/kg,iv administration measured upto 9 days by LC-MS/MS analysis; assay type: ADME, organism-based; conditions: in vivo, time < 9 day, read-out: Vdss
chymotrypsin = chymotrypsin (Homo sapiens, UniProt P17538+P40313+Q6GPI1+Q99895); test: Proteolytic stability assessed as Chymotrypsin (unknown origin) mediated compound degradation by measuring parent compound remaining incubated for 2 hrs by LC-MS/MS analysis; assay type: ADME, protein assay; conditions: read-out: Stability
[11] = test system: Human immunodeficiency virus 1; test: Antiviral activity against T20-resistant HIV-1 NL4-3 harboring […] N38A and N42T mutant assessed as reduction in viral growth by measuring p24 antigen level incubated for 2 hrs by ELISA; assay type: functional, organism-based
[12] = test system: Human immunodeficiency virus 1; test: Antiviral activity against T20-resistant HIV-1 NL4-3 harboring […] N42T and N43K mutant assessed as reduction in viral growth by measuring p24 antigen level incubated for 2 hrs by ELISA; assay type: functional, organism-based
[13] = Elimination half life in Sprague-Dawley rat at 1 mg/kg,iv administration measured upto 9 days by LC-MS/MS analysis; assay type: ADME, organism-based; conditions: in vivo, time < 9 day, read-out: beta t1/2 (converted)
[14] = test system: Human immunodeficiency virus 1; test: Antiviral activity against T20-resistant HIV-1 NL4-3 harboring […] N38A and N42T mutant infected in human MT2 cells assessed as inhibition of viral growth pretreated with virus for 30 mins followed by infection with cells incubated for 72 hrs by ELISA; assay type: functional, organism-based
[15] = AUClast in Sprague-Dawley rat at 1 mg/kg,iv administration measured upto 9 days by LC-MS/MS analysis; assay type: ADME, organism-based; conditions: in vivo, time < 9 day
[16] = test system: Human immunodeficiency virus 1; test: Antiviral activity against HIV-1 IIIB assessed as reduction in viral growth by measuring p24 antigen level incubated for 2 hrs by ELISA; assay type: functional, organism-based; conditions: Human immunodeficiency virus 1, IIIB
[17] = test system: Human immunodeficiency virus 1; test: Antiviral activity against T20-resistant HIV-1 NL4-3 harboring […] V38E and N42S mutant infected in human MT2 cells assessed as inhibition of viral growth pretreated with virus for 30 mins followed by infection with cells incubated for 72 hrs by ELISA; assay type: functional, organism-based
[18] = test system: Human immunodeficiency virus 1; test: Antiviral activity against HIV-1 Bal-R5 assessed as reduction in viral growth by measuring p24 antigen level incubated for 2 hrs by ELISA; assay type: functional, organism-based; conditions: Human immunodeficiency virus 1, Bal-R5, 2 h
[19] = Drug concentration in Sprague-Dawley rat plasma at 50 mg/kg,po administrated for 5 days by LC-MS/MS analysis; assay type: ADME, organism-based; conditions: in vivo, 120 h, time 5 day
[20] = test system: Human immunodeficiency virus 1; test: Antiviral activity against HIV-1 clinical isolate X4-89BZ167 assessed as reduction in viral growth by measuring p24 antigen level incubated for 2 hrs by ELISA; assay type: functional, organism-based; conditions: Human immunodeficiency virus 1, clinical isolate X4-89BZ167, 2 h
[21] = Proteolytic stability assessed as Pepsin (unknown origin) mediated compound degradation incubated for 4 hrs by LC-MS/MS analysis; assay type: ADME; conditions: human
[22] = Total clearance in Sprague-Dawley rat at 1 mg/kg,iv administration measured upto 9 days by LC-MS/MS analysis; assay type: ADME, organism-based; conditions: in vivo, time < 9 day
[23] = Proteolytic stability assessed as proteinase K (unknown origin) mediated compound degradation incubated for 4 hrs by LC-MS/MS analysis; assay type: ADME; conditions: human
[24] = Drug degradation in rat plasma at 1 ug/ml incubated for 1 hr by LC-MS/MS analysis; assay type: ADME, cell-free; conditions: at 1 µg/mL
[25] = Plasma protein binding in rat by LC-MS/MS analysis; assay type: ADME, cell-free; conditions: read-out: PPB (converted)
[26] = Plasma protein binding in human by LC-MS/MS analysis; assay type: ADME, cell-free; conditions: read-out: PPB (converted)

Compound: CC(=O)NCC(=O)N[C@@H](Cc1c[nH]c2ccccc12)C(=O)N[C@@H](CCC(=O)O)C(=O)N[C@@H](C)C(=O)N[C@@H](CC(C)C)C(=O)N[C@@H](CCCCN)C(=O)N[C@@H](Cc1ccc(O)cc1)C(=O)N[C@@H](CC(C)C)C(=O)N[C@@]1(C)CCC/C=C\CCC[C@@](C)(C(=O)N[C@@H](Cc2ccc(O)cc2)C(=O)N[C@@H](Cc2c[nH]c3ccccc23)C(N)=O)NC(=O)[C@H](CC(C)C)NC(=O)[C@H](CC(C)C)NC(=O)[C@H](CC(N)=O)NC1=O (Ac-GWEALKYL[S5]NLL[S5]YW-NH2; staple (Z) 9-13)
- selectivity ratio [1]: 36.9
- CC50 [2]: 5.87 µM
- IC50 [3]: 0.16 µM

Compound: CC(=O)NCC(=O)N[C@@H](Cc1c[nH]c2ccccc12)C(=O)N[C@@H](CCC(=O)O)C(=O)N[C@@H](C)C(=O)N[C@@H](CC(C)C)C(=O)N[C@@H](CCCCN)C(=O)N[C@@H](Cc1ccc(O)cc1)C(=O)N[C@@]1(C)CCC/C=C\CCC[C@@](C)(C(=O)N[C@@H](CCC(N)=O)C(=O)N[C@@H](Cc2ccc(O)cc2)C(=O)N[C@@H](Cc2c[nH]c3ccccc23)C(N)=O)NC(=O)[C@H](CC(C)C)NC(=O)[C@H](CC(N)=O)NC(=O)[C@H](Cc2c[nH]c3ccccc23)NC1=O (Ac-GWEALKY[S5]WNL[S5]QYW-NH2; staple (Z) 8-12)
- selectivity ratio [1]: 26.1
- CC50 [2]: 2.49 µM
- IC50 [3]: 0.0955 µM

Compound: CC(=O)NCC(=O)N[C@@H](Cc1c[nH]c2ccccc12)C(=O)N[C@@H](CCC(=O)O)C(=O)N[C@@H](C)C(=O)N[C@@]1(C)CCC/C=C\CCC[C@@](C)(C(=O)N[C@@H](CC(N)=O)C(=O)N[C@@H](CC(C)C)C(=O)N[C@@H](CC(C)C)C(=O)N[C@@H](CCC(N)=O)C(=O)N[C@@H](Cc2ccc(O)cc2)C(=O)N[C@@H](Cc2c[nH]c3ccccc23)C(N)=O)NC(=O)[C@H](CC(C)C)NC(=O)[C@H](Cc2ccc(O)cc2)NC(=O)[C@H](CCCCN)NC1=O (Ac-GWEA[S5]KYL[S5]NLLQYW-NH2; staple (Z) 5-9)
- IC50 [3]: > 2 µM

Compound: CC(=O)NCC(=O)N[C@@H](Cc1c[nH]c2ccccc12)C(=O)N[C@@H](CCC(=O)O)C(=O)N[C@@]1(C)CCC/C=C\CCC[C@@](C)(C(=O)N[C@@H](Cc2c[nH]c3ccccc23)C(=O)N[C@@H](CC(N)=O)C(=O)N[C@@H](CC(C)C)C(=O)N[C@@H](CC(C)C)C(=O)N[C@@H](CCC(N)=O)C(=O)N[C@@H](Cc2ccc(O)cc2)C(=O)N[C@@H](Cc2c[nH]c3ccccc23)C(N)=O)NC(=O)[C@H](Cc2ccc(O)cc2)NC(=O)[C@H](CCCCN)NC(=O)[C@H](CC(C)C)NC1=O (Ac-GWE[S5]LKY[S5]WNLLQYW-NH2; staple (Z) 4-8)
- selectivity ratio [1]: 52.5
- CC50 [2]: 2.31 µM
- IC50 [3]: 0.0442 µM

Compound: CC(=O)NCC(=O)N[C@@]1(C)CCC/C=C\CCC[C@@](C)(C(=O)N[C@@H](Cc2ccc(O)cc2)C(=O)N[C@@H](CC(C)C)C(=O)N[C@@H](Cc2c[nH]c3ccccc23)C(=O)N[C@@H](CC(N)=O)C(=O)N[C@@H](CC(C)C)C(=O)N[C@@H](CC(C)C)C(=O)N[C@@H](CCC(N)=O)C(=O)N[C@@H](Cc2ccc(O)cc2)C(=O)N[C@@H](Cc2c[nH]c3ccccc23)C(N)=O)NC(=O)[C@H](CC(C)C)NC(=O)[C@H](C)NC(=O)[C@H](CCC(=O)O)NC1=O (Ac-G[S5]EAL[S5]YLWNLLQYW-NH2; staple (Z) 2-6)
- selectivity ratio [1]: 59.3
- CC50 [2]: 7.18 µM
- IC50 [3]: 0.121 µM

Compound: CC(=O)N[C@@]1(C)CCC/C=C\CCC[C@@](C)(C(=O)N[C@@H](CCCCN)C(=O)N[C@@H](Cc2ccc(O)cc2)C(=O)N[C@@H](CC(C)C)C(=O)N[C@@H](Cc2c[nH]c3ccccc23)C(=O)N[C@@H](CC(N)=O)C(=O)N[C@@H](CC(C)C)C(=O)N[C@@H](CC(C)C)C(=O)N[C@@H](CCC(N)=O)C(=O)N[C@@H](Cc2ccc(O)cc2)C(=O)N[C@@H](Cc2c[nH]c3ccccc23)C(N)=O)NC(=O)[C@H](C)NC(=O)[C@H](CCC(=O)O)NC(=O)[C@H](Cc2c[nH]c3ccccc23)NC1=O (Ac-[S5]WEA[S5]KYLWNLLQYW-NH2; staple (Z) 1-5)
- selectivity ratio [1]: 78.5
- CC50 [2]: 2.67 µM
- IC50 [3]: 0.0342 µM

Compound: CC(=O)N[C@@]1(C)CCC/C=C\CCC[C@@](C)(C(=O)N[C@@H](CCCCN)C(=O)N[C@@H](Cc2ccc(O)cc2)C(=O)N[C@@]2(C)CCC/C=C\CCC[C@@](C)(C(=O)N[C@@H](CCC(N)=O)C(=O)N[C@@H](Cc3ccc(O)cc3)C(=O)N[C@@H](Cc3c[nH]c4ccccc34)C(N)=O)NC(=O)[C@H](CC(C)C)NC(=O)[C@H](CC(N)=O)NC(=O)[C@H](Cc3c[nH]c4ccccc34)NC2=O)NC(=O)[C@H](C)NC(=O)[C@H](CCC(=O)O)NC(=O)[C@H](Cc2c[nH]c3ccccc23)NC1=O (Ac-[S5]WEA[S5]KY[S5]WNL[S5]QYW-NH2; staple (Z) 1-5, 8-12)
- selectivity ratio [1]: 32.6
- CC50 [2]: 4.03 µM
- IC50 [3]: 0.123 µM

Compound: H-GWEALKYLWNLLQYW-OH
- MRT [4]: 5.4 h
- selectivity ratio [1]: 60.9
- Drug uptake [5]: Not Active
- CC50 [2]: 7.9 µM
- EC50 [6]: 0.371 µM
- IC50 [7]: 0.142 µM
- remaining at 1 h, 1 ug/ml [8]: 80%
- Drug uptake [9]: Active
- Vd [10]: 0.0527 L/kg
- remaining at 2 h (chymotrypsin): 32.9%
- EC50 [11]: 0.0305 µM
- EC50 [12]: 0.0419 µM
- half-life [13]: 3.8 h
- IC50 [14]: 0.0201 µM
- AUC(0-t) at 216 h [15]: 114 µg·h/mL
- EC50 [16]: 0.0261 µM
- IC50 [3]: 0.13 µM
- IC50 [17]: 0.0213 µM
- EC50 [18]: 25.3 µM
- Drug uptake [19]: Not Active
- EC50 [20]: 0.098 µM
- Stability [21]: Unstable
- clearance [22]: 0.158 mL/min/kg
- Stability [23]: Unstable
- Stability [24]: Stable

Compound: enfuvirtide
- fraction unbound [25]: 0.041
- EC50 [16]: > 4 µM
- IC50 [3]: 0.0486 µM
- fraction unbound [26]: 0.187
- EC50 [18]: > 4 µM
- EC50 [20]: > 4 µM
